Patent publication US20100226966A1, “Method for transdermal controlled release drug delivery” (priority 2009, published 2010)

Assays:
[1] = Clinical dose-finding and bioavailability study, transdermal coated microprojection vs subcutaneous Forteo, PTH plasma levels and safety; type: in vivo, human (healthy, young females)
Description: (§1) In this example, transdermal delivery of a PTH-based agent using a coated microprojection member was compared to conventional, subcutaneous delivery of teriparatide PTH (Forteo™). A dose-finding study was conducted with […], young females that received two treatments, separated by at least five days, according to randomly assigned sequence of 20 μg subcutaneous delivery of Forteo™ and 30 μg transdermal delivery of a PTH-based agent by coated microprojection. Bioavailability of transdermally delivered PTH was determined in 20 healthy, young females by administering two treatments, separated by at least five day, according to randomly assigned sequence of 40 μg subcutaneous delivery of Forteo™ and 30 μg transdermal delivery of a PTH-based agent by coated microprojection.
In the dose-finding study, two participants dropped out, eleven subjects participated and eight generated usable data. It was determined that three subjects had measurable PTH plasma levels following subcutaneous injection and eight subjects had measurable PTH plasma levels following transdermal delivery.

[2] = Water solubility of PTH; type: physicochemical; conditions: at pH 5
Source text: Referring now to FIG. 10, there is shown a superposition of the mole ratios for acetic acid and the neutral form of hPTH(1-34). […] At pH 5, negligible amounts of PTH are present as PTH zero net charge (PTH 0). The PTH is also highly soluble in water at concentrations in excess of 20%. During drying and subsequent storage, the free acetic acid will evaporate inherently resulting in formation of the water insoluble PTH 0. Subsequent reconstitution in water will not allow total solubilization of PTH. Accordingly, the use of a low volatility counterion provides a solid soluble formulation of PTH as long as the pH is maintained at least 2.5 pH units, preferably 3 pH units, below the pI of PTH. Preferably, this can be achieved by providing at least about two low volatility counterions to each molecule of PTH.

[3] = Pharmacokinetics of hPTH (1-34) after IV, SC and coated microprojection array administration in hairless guinea pig; type: in vivo; conditions: HGP; for dose absorbed/delivered: calculated against IV AUC
[4] = system: urinary cAMP; assay: Urinary cAMP excretion after transdermal vs subcutaneous PTH delivery; type: in vivo, human (healthy, young females); conditions: FIG. 15
Description: as §1
FIG. 12 further reflects a preferred pulsatile concentration profile of the PTH agent, i.e., rapid on-set and rapid off-set after reaching Cmax.

CC[C@H](C)[C@H](NC(=O)[C@H](CCC(=O)O)NC(=O)[C@H](CO)NC(=O)[C@@H](NC(=O)[C@@H](N)CO)C(C)C)C(=O)N[C@@H](CCC(N)=O)C(=O)N[C@@H](CC(C)C)C(=O)N[C@@H](CCSC)C(=O)N[C@@H](Cc1cnc[nH]1)C(=O)N[C@@H](CC(N)=O)C(=O)N[C@@H](CC(C)C)C(=O)NCC(=O)N[C@@H](CCCCN)C(=O)N[C@@H](Cc1cnc[nH]1)C(=O)N[C@@H](CC(C)C)C(=O)N[C@@H](CC(N)=O)C(=O)N[C@@H](CO)C(=O)N[C@@H](CCSC)C(=O)N[C@@H](CCC(=O)O)C(=O)N[C@@H](CCCN=C(N)N)C(=O)N[C@H](C(=O)N[C@@H](CCC(=O)O)C(=O)N[C@@H](Cc1c[nH]c2ccccc12)C(=O)N[C@@H](CC(C)C)C(=O)N[C@@H](CCCN=C(N)N)C(=O)N[C@@H](CCCCN)C(=O)N[C@@H](CCCCN)C(=O)N[C@@H](CC(C)C)C(=O)N[C@@H](CCC(N)=O)C(=O)N[C@@H](CC(=O)O)C(=O)N[C@H](C(=O)N[C@@H](Cc1cnc[nH]1)C(=O)N[C@@H](CC(N)=O)C(=O)N[C@@H](Cc1ccccc1)C(=O)O)C(C)C)C(C)C [hPTH (1-34)]
subjects with measurable PTH plasma levels ([1]; bioavailability study, subcutaneous delivery 40 μg, 20 subjects completed): 15 subjects | subjects with measurable PTH plasma levels ([1]; bioavailability study, transdermal delivery 30 μg, 20 subjects completed): 20 subjects | subjects with measurable PTH plasma levels ([1]; dose-finding study, subcutaneous injection 20 μg, eight subjects with usable data): three | subjects with measurable PTH plasma levels ([1]; dose-finding study, transdermal delivery 30 μg, eight subjects with usable data): eight | solubility in water (concentration) [2]: > 20% | Fraction dose absorbed/delivered (%) ([3]; IV, 22.5 μg): 100% | dose absorbed/delivered ([3]; SC, 19.5 μg): 8.2 ± 2.9 µg | Cmax ([3]; hairless, guinea pig, plasma, 22.5 ug, IV): 11.2 ng/mL | dose absorbed/delivered ([3]; microprojection array, 40.0 μg): 6.6 ± 1.8 µg | biological activity as evidenced by urinary cAMP excretion [4]: comparable to that following subcutaneous delivery
